Test results taken from ChEMBL document CHEMBL1201862, “PubChem BioAssay data set” (2004).
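Protocol summary: plate cells (96-well), add compound at 5 concentrations, incubate 48 h, interpolate endpoints linearly. The concentration for 50% growth inhibition is given as GI50.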 The source made the active and inactive calls. No stated cut-off is given here; in the data, active = GI50 up to about 1.1 µM and inactive = higher.

Assays:
Test in all cases: growth of human tumour cells (NCI), 48 h
ACHN = test system: ACHN
BT-549 = test system: BT-549
HOP-92 = test system: HOP-92
KM12 = test system: KM12
M14 = test system: M14
MDA-MB-231 = test system: MDA-MB-231
MDA-MB-435 = test system: MDA-MB-435
MOLT-4 = test system: MOLT-4
NCI-H460 = test system: NCI-H460
NCI-H522 = test system: NCI-H522
OVCAR-4 = test system: OVCAR-4
OVCAR-8 = test system: OVCAR-8
PC-3 = test system: PC-3
RPMI-8226 = test system: RPMI-8226
SF-295 = test system: SF-295
SF-539 = test system: SF-539
SNB-19 = test system: SNB-19
U-251 = test system: U-251
K562 = test system: K562

Measured: GI50

C=CCn1cnc2c(O)nc(Nc3ccccc3)nc21
inactive: ACHN > 100 µM | BT-549 > 100 µM | HOP-92 > 100 µM | KM12 > 100 µM | M14 > 100 µM | MDA-MB-231 > 100 µM | MDA-MB-435 > 100 µM | MOLT-4 12.8 µM | NCI-H460 > 100 µM | NCI-H522 > 100 µM | OVCAR-4 > 100 µM | OVCAR-8 > 100 µM | PC-3 > 100 µM | RPMI-8226 > 100 µM | SF-295 > 100 µM | SF-539 > 100 µM | SNB-19 > 100 µM | U-251 > 100 µM

COc1ccc(C2C(C#N)=C(S)N(C3OC(COC(C)=O)C(OC(C)=O)C(OC(C)=O)C3OC(C)=O)C(c3ccccc3)=C2C(C)=O)cc1 (configuration not stated)
inactive: ACHN > 100 µM | BT-549 > 100 µM | HOP-92 > 100 µM | K562 37.5 µM | KM12 > 100 µM | M14 > 100 µM | MDA-MB-231 > 100 µM | MDA-MB-435 33.6 µM | MOLT-4 64.4 µM | NCI-H460 > 100 µM | NCI-H522 61.4 µM | OVCAR-4 > 100 µM | OVCAR-8 > 100 µM | PC-3 > 100 µM | RPMI-8226 92 µM | SF-295 > 100 µM | SF-539 76.7 µM | SNB-19 > 100 µM | U-251 > 100 µM

O=C1c2ccccc2C(=O)[C@@]23O[C@@]12C1(Oc2cccc4cccc(c24)O1)[C@@H]1O[C@@H]1[C@@H]3O
inactive: ACHN 12.5 µM | BT-549 2.9 µM | HOP-92 15.8 µM | K562 2.23 µM | KM12 14 µM | M14 8.97 µM | MDA-MB-231 14.8 µM | MDA-MB-435 17.2 µM | MOLT-4 2.7 µM | NCI-H460 9.86 µM | NCI-H522 3.36 µM | OVCAR-4 4.19 µM | OVCAR-8 4.71 µM | PC-3 15.2 µM | RPMI-8226 2.68 µM | SF-295 12.9 µM | SF-539 2.64 µM | SNB-19 13.3 µM | U-251 7.1 µM

COc1cc([C@H]2CC(=O)C[C@@H](c3cc(OC)c(OC)c(OC)c3)C23C(=O)c2ccccc2C3=O)cc(OC)c1OC
inactive: ACHN > 100 µM | BT-549 > 100 µM | HOP-92 > 100 µM | K562 > 100 µM | KM12 > 100 µM | M14 > 100 µM | MDA-MB-231 > 100 µM | MDA-MB-435 > 100 µM | MOLT-4 > 100 µM | NCI-H460 > 100 µM | NCI-H522 > 100 µM | OVCAR-4 > 100 µM | OVCAR-8 > 100 µM | PC-3 > 100 µM | RPMI-8226 > 100 µM | SF-295 > 100 µM | SF-539 > 100 µM | SNB-19 > 100 µM | U-251 > 100 µM

O=C(O)C1=NN(c2ccc(S(=O)(=O)O)cc2)C2(C1)C(Cl)C(=O)N2c1nc2ccccc2s1 (configuration not stated)
inactive: ACHN 17 µM | BT-549 17.4 µM | HOP-92 20.5 µM | K562 22.1 µM | KM12 14.9 µM | M14 15.7 µM | MDA-MB-231 19 µM | MDA-MB-435 16.2 µM | MOLT-4 15.3 µM | NCI-H460 16 µM | NCI-H522 10.7 µM | OVCAR-4 16.4 µM | OVCAR-8 17.6 µM | PC-3 16.6 µM | RPMI-8226 13.1 µM | SF-295 15.6 µM | SF-539 4.4 µM | SNB-19 21.3 µM | U-251 15.8 µM

COc1c(O)ccc(C2=Cc3ccc(O)cc3OC2)c1OC
inactive: ACHN 6.56 µM | BT-549 23.6 µM | HOP-92 24 µM | K562 7.08 µM | KM12 7.33 µM | M14 21 µM | MDA-MB-231 20.7 µM | MDA-MB-435 7.64 µM | MOLT-4 6.82 µM | NCI-H460 31 µM | NCI-H522 2.34 µM | OVCAR-4 23.9 µM | OVCAR-8 18 µM | PC-3 18.6 µM | RPMI-8226 3.51 µM | SF-295 22.8 µM | SF-539 16.3 µM | SNB-19 55.3 µM | U-251 26 µM

Nc1ccc(COC(O)CN2CCCCC2)cc1[N+](=O)[O-] (configuration not stated)
inactive: ACHN > 100 µM | BT-549 > 100 µM | HOP-92 > 100 µM | K562 > 100 µM | KM12 > 100 µM | M14 > 100 µM | MDA-MB-231 > 100 µM | MDA-MB-435 > 100 µM | MOLT-4 > 100 µM | NCI-H460 > 100 µM | NCI-H522 > 100 µM | OVCAR-4 > 100 µM | OVCAR-8 > 100 µM | PC-3 > 100 µM | RPMI-8226 > 100 µM | SF-295 > 100 µM | SF-539 > 100 µM | SNB-19 > 100 µM | U-251 > 100 µM
